Reference: patent publication US20210169848A1, “USE OF NEUROKININ-1 ANTAGONISTS TO TREAT PRURITUS” (VYNE THERAPEUTICS INC., priority 2018, published 2021)

Key:
[1] = cited from earlier work
[2] = system: subjects with idiopathic pruritus; test: Phase II randomized, double-blind, placebo-controlled clinical study of serlopitant for chronic pruritus (post hoc WI-NRS 4-point responder analysis); type: in vivo, human; settings: for WI-NRS 4-point Responder Rate at Week 6: 6 weeks, 3-tablet loading dose Day 1
patients with pruritus = test: Pooled clinical studies, age-related effects of serlopitant (NRS change, NRS 4-point responder rate); type: in vivo, human; settings: older patients (e.g., 40 years or older) compared with younger patients; pooled 1 mg and 5 mg
Experimental: Data obtained from the clinical studies described in Examples 6-8 for patients administered 1 mg and 5 mg serlopitant were pooled and evaluated on the basis of the age of the subjects.

| Compound | thermodynamic stability of polymorph ([1]; Form I relative to Form II of free base serlopitant) | hygroscopicity ([1]; all tested relative humidity conditions) | WI-NRS 4-point Responder Rate at Week 6 ([2]; all patients, 0.25 mg once daily oral) | WI-NRS 4-point Responder Rate at Week 6 ([2]; all patients, 1 mg once daily oral) | WI-NRS 4-point Responder Rate at Week 6 ([2]; all patients, 5 mg once daily oral) | WI-NRS 4-point Responder Rate at Week 6 ([2]; patients with inflammatory skin disease, 0.25 mg once daily oral) | WI-NRS 4-point Responder Rate at Week 6 ([2]; patients with inflammatory skin disease, 1 mg once daily oral) | WI-NRS 4-point Responder Rate at Week 6 ([2]; patients with inflammatory skin disease, 5 mg once daily oral) | response to serlopitant therapy, patients without vs with inflammatory skin disease ([2]; patients without inflammatory skin disease compared with patients with inflammatory skin disease) | WI-NRS 4-point Responder Rate at Week 6 ([2]; patients without inflammatory skin disease, 0.25 mg once daily oral) | WI-NRS 4-point Responder Rate at Week 6 ([2]; patients without inflammatory skin disease, 1 mg once daily oral) | WI-NRS 4-point Responder Rate at Week 6 ([2]; patients without inflammatory skin disease, 5 mg once daily oral) | response to serlopitant therapy as function of age (NRS change from baseline, NRS 4-point Responder Rate) (patients with pruritus) |
| --- | --- | --- | --- | --- | --- | --- | --- | --- | --- | --- | --- | --- | --- |
| C[C@@H](O[C@H]1CC[C@@H]2CN(C3=CC(=O)CC3)C[C@H]2[C@@H]1c1ccc(F)cc1)c1cc(C(F)(F)F)cc(C(F)(F)F)c1 [Form I] | thermodynamically more stable below 70 °C | non-hygroscopic |  |  |  |  |  |  |  |  |  |  |  |
| CC(O[C@H]1CC[C@@H]2CN(C3=CC(=O)CC3)C[C@H]2[C@@H]1c1ccc(F)cc1)c1cc(C(F)(F)F)cc(C(F)(F)F)c1 (stereo partly drawn) [serlopitant, 3-[(3aR,4R,5S,7aS)-5-[(1R)-1-[3,5-bis(trifluoromethyl)phenyl]cthoxy]-4-(4-fluorophenyI)-1,3,3a,4,5,6,7,7a-octahydroisoindol-2-yl]cyclopent-2-en-1-one] |  |  | 38.5% (n = 52) | 32.7% (n = 55) | 46.2% (n = 52) | 30.8% (n = 26) | 29.6% (n = 27) | 33.3% (n = 18) | appeared to respond better | 46.2% (n = 26) | 35.7% (n = 28) | 52.9% (n = 34) | responded better |
